Measured values from patent US11331299B2, “Medicinal use of serrulatane diterpenes” (The University of Sydney, priority 2016, dated 2022).

Assays:
Experiment in all cases: biochemical
Format in all cases: binding
[1] = biological target: receptors (Bioprint panel) (Homo sapiens, UniProt P03372); conditions: Estrogen ER alpha (h) (agonist radioligand); 10 μM; read-out: % Inhibition of Control Specific Binding
[2] = biological target: receptors (Bioprint panel) (Homo sapiens, UniProt P14416); conditions: DOPAMINE D2S (h) (agonist radioligand); 10 μM; read-out: % Inhibition of Control Specific Binding
[3] = biological target: receptors (Bioprint panel) (Homo sapiens, UniProt P21452); conditions: NEUROKININ NK2 (h) (agonist radioligand); 10 μM; read-out: % Inhibition of Control Specific Binding
[4] = biological target: receptors (Bioprint panel) (Homo sapiens, UniProt P30411); conditions: BRADYKININ B2 (h) (agonist radioligand); 10 μM; read-out: % Inhibition of Control Specific Binding
[5] = biological target: receptors (Bioprint panel) (Homo sapiens, UniProt P41968); conditions: MELANOCORTIN MC3 (h) (agonist radioligand); 10 μM; read-out: % Inhibition of Control Specific Binding
[6] = biological target: receptors (Bioprint panel) (Homo sapiens, UniProt Q99705); conditions: MELANIN-CONCENTRATING-HORMONE MCH1 (h) (agonist radioligand); 10 μM; read-out: % Inhibition of Control Specific Binding
[7] = biological target: receptors (Bioprint panel) (Homo sapiens, UniProt P30872); conditions: SOMASTATIN sst1 (h) (agonist radioligand); 10 μM; read-out: % Inhibition of Control Specific Binding
[8] = biological target: receptors (Bioprint panel) (Homo sapiens, UniProt P35368); conditions: […] alpha 1B (h) (antagonist radioligand); 10 μM; read-out: % Inhibition of Control Specific Binding
[9] = biological target: receptors (Bioprint panel) (Homo sapiens, UniProt P08173); conditions: […] M4 (h) (antagonist radioligand); 10 μM; read-out: % Inhibition of Control Specific Binding
[10] = biological target: receptors (Bioprint panel) (Homo sapiens, UniProt P21554); conditions: CANNABINOID CB1 (h) (agonist radioligand); 10 μM; read-out: % Inhibition of Control Specific Binding
[11] = biological target: receptors (Bioprint panel) (Homo sapiens, UniProt P41595); conditions: read-out: % Inhibition of Control Specific Binding
[12] = biological target: receptors (Bioprint panel) (Homo sapiens, UniProt P43681); conditions: NICOTINIC […] N neuronal alpha 4beta 2 (h) (agonist radioligand); 10 μM; read-out: % Inhibition of Control Specific Binding
[13] = biological target: receptors (Bioprint panel) (Homo sapiens, UniProt P14867); conditions: GABAA1 (h) (alpha 1, beta 2, gamma 2) (agonist radioligand); 10 μM; read-out: % Inhibition of Control Specific Binding
[14] = biological target: receptors (Bioprint panel) (Homo sapiens, UniProt P18089); conditions: […] alpha 2B (h) (antagonist radioligand); 10 μM; read-out: % Inhibition of Control Specific Binding
[15] = biological target: receptors (Bioprint panel) (Homo sapiens, UniProt P08172); conditions: […] M2 (h) (antagonist radioligand); 10 μM; read-out: % Inhibition of Control Specific Binding
[16] = biological target: receptors (Bioprint panel) (Homo sapiens, UniProt P32241); conditions: […] VPAC1 (VIP1) (h) (agonist radioligand); 10 μM; read-out: % Inhibition of Control Specific Binding
[17] = biological target: receptors (Bioprint panel) (Homo sapiens, UniProt Q9Y5N1); conditions: HISTAMINE H3 (h) (agonist radioligand); 10 μM; read-out: % Inhibition of Control Specific Binding
[18] = system: receptors (Bioprint panel); conditions: 10 μM
[19] = biological target: receptors (Bioprint panel) (Rattus norvegicus, UniProt P34975); conditions: OPIOD & OPIOID-LIKE kappa (KOP) (agonist radioligand); 10 μM; read-out: % Inhibition of Control Specific Binding
[20] = biological target: receptors (Bioprint panel) (Homo sapiens, UniProt P25103); conditions: NEUROKININ NK1 (h) (agonist radioligand); 10 μM; read-out: % Inhibition of Control Specific Binding
[21] = biological target: receptors (Bioprint panel) (Homo sapiens, UniProt P41597); conditions: CHEMOKINES CCR2 (h) (agonist radioligand); 10 μM; read-out: % Inhibition of Control Specific Binding
[22] = biological target: receptors (Bioprint panel) (Homo sapiens, UniProt P31391); conditions: SOMASTATIN sst4 (h) (agonist radioligand); 10 μM; read-out: % Inhibition of Control Specific Binding
[23] = biological target: receptors (Bioprint panel) (Homo sapiens, UniProt P32239); conditions: CHOLECYSTOKININ CCK2 (CCKB) (h) (agonist radioligand); 10 μM; read-out: % Inhibition of Control Specific Binding

Chain of receptors (Bioprint panel) (Rattus norvegicus, UniProt P34975) (P34975 whole entry): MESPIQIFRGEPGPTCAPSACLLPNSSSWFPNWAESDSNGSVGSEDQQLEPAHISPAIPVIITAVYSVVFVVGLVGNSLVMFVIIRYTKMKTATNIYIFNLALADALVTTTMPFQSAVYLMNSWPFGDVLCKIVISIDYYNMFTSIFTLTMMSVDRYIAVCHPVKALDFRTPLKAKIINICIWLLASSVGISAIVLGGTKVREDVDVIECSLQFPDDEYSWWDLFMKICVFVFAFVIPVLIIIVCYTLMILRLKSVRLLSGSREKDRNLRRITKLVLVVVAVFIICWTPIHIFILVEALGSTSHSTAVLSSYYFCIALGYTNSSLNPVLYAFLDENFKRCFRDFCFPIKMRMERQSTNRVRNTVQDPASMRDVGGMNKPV
Chain of receptors (Bioprint panel) (Homo sapiens, UniProt P41968) (P41968 whole entry): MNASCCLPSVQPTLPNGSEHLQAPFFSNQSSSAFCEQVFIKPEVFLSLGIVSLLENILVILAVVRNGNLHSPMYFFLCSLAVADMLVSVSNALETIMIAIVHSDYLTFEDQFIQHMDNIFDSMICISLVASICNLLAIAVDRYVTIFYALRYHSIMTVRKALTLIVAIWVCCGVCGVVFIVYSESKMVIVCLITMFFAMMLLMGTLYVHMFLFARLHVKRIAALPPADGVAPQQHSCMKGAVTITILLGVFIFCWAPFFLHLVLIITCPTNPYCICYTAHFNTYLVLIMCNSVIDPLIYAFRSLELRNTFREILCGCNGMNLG
Chain of receptors (Bioprint panel) (Homo sapiens, UniProt Q9Y5N1) (Q9Y5N1 whole entry): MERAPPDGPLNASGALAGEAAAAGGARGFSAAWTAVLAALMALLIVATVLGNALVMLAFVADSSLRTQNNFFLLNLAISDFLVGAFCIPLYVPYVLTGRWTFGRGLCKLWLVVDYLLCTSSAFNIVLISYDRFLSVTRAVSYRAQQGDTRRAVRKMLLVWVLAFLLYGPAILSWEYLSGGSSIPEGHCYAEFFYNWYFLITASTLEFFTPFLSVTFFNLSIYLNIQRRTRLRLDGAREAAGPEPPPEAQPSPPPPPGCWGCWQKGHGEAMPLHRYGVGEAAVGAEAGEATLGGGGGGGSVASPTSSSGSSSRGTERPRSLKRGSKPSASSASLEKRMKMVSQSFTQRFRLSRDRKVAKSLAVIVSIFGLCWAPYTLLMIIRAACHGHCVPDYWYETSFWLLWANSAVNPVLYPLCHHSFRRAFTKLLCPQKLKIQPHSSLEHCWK
Chain of receptors (Bioprint panel) (Homo sapiens, UniProt P08172) (P08172 whole entry): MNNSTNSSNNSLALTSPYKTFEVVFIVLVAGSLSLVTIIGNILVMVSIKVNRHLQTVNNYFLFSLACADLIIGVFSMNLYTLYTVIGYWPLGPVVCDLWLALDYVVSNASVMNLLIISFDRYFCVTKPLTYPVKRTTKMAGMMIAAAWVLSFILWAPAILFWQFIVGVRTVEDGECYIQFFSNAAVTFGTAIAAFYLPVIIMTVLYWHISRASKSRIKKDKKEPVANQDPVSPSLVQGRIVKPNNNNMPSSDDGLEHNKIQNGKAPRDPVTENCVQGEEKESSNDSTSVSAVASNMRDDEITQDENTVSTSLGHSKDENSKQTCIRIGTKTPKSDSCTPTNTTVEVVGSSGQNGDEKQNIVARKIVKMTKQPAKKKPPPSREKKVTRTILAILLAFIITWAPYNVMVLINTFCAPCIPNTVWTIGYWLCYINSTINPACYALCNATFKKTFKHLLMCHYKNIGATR
Chain of receptors (Bioprint panel) (Homo sapiens, UniProt P43681) (P43681 27-627): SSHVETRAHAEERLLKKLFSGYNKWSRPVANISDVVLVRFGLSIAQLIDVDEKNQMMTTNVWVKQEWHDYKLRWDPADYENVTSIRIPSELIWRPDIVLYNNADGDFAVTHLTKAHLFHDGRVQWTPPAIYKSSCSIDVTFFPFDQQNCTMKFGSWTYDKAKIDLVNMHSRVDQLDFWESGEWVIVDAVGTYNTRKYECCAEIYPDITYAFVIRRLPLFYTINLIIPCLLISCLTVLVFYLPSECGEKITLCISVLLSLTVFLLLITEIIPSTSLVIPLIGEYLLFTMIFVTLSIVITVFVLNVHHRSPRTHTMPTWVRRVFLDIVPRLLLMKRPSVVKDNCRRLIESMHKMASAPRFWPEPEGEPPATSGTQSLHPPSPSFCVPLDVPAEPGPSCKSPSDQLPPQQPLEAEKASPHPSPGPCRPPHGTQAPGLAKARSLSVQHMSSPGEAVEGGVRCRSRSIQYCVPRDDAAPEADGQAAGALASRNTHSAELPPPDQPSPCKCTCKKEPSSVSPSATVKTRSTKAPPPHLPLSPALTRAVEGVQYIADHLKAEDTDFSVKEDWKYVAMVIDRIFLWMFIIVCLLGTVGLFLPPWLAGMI
Chain of receptors (Bioprint panel) (Homo sapiens, UniProt P30872) (P30872 whole entry): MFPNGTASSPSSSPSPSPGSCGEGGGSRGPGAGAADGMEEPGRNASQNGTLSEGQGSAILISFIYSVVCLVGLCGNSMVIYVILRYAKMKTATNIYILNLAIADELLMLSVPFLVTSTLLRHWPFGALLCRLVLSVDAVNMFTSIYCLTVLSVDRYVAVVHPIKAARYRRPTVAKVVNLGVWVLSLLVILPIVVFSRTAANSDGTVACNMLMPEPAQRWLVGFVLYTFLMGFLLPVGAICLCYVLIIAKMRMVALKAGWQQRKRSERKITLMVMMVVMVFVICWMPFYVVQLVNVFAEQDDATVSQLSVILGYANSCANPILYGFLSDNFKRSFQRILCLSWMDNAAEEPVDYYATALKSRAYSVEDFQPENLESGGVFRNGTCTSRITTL
Chain of receptors (Bioprint panel) (Homo sapiens, UniProt Q99705) (Q99705 whole entry): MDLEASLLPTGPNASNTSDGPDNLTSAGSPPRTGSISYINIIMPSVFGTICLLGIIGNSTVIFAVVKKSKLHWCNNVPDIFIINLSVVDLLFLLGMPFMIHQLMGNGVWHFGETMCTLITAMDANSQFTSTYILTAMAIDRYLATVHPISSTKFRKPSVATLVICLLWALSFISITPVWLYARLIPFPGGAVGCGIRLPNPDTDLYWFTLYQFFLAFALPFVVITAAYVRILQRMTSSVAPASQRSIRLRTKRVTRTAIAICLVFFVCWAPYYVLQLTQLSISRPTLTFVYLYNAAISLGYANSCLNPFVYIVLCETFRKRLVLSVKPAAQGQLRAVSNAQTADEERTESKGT
Chain of receptors (Bioprint panel) (Homo sapiens, UniProt P35368) (P35368 whole entry): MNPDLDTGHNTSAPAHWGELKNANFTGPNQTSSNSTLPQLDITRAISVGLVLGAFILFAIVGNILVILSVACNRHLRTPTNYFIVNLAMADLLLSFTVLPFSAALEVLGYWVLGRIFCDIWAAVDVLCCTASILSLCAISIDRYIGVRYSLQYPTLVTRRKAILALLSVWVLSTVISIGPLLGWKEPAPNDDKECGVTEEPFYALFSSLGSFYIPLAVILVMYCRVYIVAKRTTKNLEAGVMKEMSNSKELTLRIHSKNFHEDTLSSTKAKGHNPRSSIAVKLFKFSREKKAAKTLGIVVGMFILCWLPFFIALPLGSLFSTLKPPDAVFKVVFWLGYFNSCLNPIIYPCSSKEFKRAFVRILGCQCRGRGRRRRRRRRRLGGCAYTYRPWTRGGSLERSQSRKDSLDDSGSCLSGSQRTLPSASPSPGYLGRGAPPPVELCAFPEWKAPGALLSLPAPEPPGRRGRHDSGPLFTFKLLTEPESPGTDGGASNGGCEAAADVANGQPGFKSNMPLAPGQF
Chain of receptors (Bioprint panel) (Homo sapiens, UniProt P14416) (P14416 other isoform, or with tags, fused parts or gaps): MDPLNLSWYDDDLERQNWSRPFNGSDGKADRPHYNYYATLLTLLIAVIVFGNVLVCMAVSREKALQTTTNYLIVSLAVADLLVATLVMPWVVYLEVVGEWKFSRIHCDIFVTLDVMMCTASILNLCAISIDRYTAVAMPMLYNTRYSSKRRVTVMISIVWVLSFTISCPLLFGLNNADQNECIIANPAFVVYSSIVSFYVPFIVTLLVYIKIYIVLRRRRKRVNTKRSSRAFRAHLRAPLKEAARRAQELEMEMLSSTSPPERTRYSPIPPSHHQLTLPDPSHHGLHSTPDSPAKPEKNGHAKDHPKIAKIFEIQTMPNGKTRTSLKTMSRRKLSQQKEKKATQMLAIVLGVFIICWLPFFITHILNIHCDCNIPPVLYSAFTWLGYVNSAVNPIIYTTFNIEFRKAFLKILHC
Chain of receptors (Bioprint panel) (Homo sapiens, UniProt P25103) (P25103 whole entry): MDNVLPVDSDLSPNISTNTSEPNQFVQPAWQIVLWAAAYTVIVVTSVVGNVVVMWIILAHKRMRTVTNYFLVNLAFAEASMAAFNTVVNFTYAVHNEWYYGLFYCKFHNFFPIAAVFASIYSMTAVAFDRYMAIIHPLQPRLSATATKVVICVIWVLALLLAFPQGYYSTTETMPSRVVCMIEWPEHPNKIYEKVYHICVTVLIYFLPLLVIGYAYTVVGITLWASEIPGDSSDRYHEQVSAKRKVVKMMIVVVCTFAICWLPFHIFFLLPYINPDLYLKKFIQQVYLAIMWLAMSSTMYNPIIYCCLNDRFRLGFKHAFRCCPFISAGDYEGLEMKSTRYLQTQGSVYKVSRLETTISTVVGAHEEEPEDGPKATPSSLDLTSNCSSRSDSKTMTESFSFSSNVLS
Chain of receptors (Bioprint panel) (Homo sapiens, UniProt P41597) (P41597 whole entry): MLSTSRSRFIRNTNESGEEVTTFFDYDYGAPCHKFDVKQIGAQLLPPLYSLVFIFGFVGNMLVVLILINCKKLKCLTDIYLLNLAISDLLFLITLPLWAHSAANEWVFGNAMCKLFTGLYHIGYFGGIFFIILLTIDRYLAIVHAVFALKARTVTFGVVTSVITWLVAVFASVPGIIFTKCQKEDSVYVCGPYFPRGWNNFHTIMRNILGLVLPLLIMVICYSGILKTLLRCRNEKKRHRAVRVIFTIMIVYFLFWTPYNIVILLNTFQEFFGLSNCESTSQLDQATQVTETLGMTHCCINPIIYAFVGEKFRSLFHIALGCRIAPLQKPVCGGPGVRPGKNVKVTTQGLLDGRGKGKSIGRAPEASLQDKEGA

How did the inhibition at 10 µM [1] turn out when `CC(C)=CCC[C@H](CO)[C@@H]1CC[C@@H](C)c2c1cc(C)c(O)c2O` [Compound 1, 7,8,18-trihydroxyserrulat-14-ene] was run?
The inhibition at 10 µM was 40%.

And the inhibition at 10 µM [2]?
The inhibition at 10 µM was 59%.

What about the inhibition at 10 µM [3] of the same molecule?
Its inhibition at 10 µM is 52%.

What about the inhibition at 10 µM [4] of the same molecule?
The inhibition at 10 µM was -37%.

And the inhibition at 10 µM [5]?
Its inhibition at 10 µM is 60%.

What about the inhibition at 10 µM [6] of the same molecule?
Its inhibition at 10 µM is -5%.

What about the inhibition at 10 µM [7] of the same molecule?
Its inhibition at 10 µM is 18%.

And the inhibition at 10 µM [8]?
The inhibition at 10 µM was 41%.

And the inhibition at 10 µM [9]?
Its inhibition at 10 µM is 19%.

And the inhibition at 10 µM [10]?
The inhibition at 10 µM was 46%.

What about the inhibition at 10 µM [11] of the same molecule?
Its inhibition at 10 µM is 70%.

And the inhibition at 10 µM [12]?
The inhibition at 10 µM was -3%.

What about the inhibition at 10 µM [13] of the same molecule?
The inhibition at 10 µM was -36%.

And the inhibition at 10 µM [14]?
Its inhibition at 10 µM is 7%.

And the inhibition at 10 µM [15]?
The inhibition at 10 µM was 1%.

And the inhibition at 10 µM [16]?
Its inhibition at 10 µM is -9%.

What about the inhibition at 10 µM [17] of the same molecule?
Its inhibition at 10 µM is 10%.

And the “% Inhibition of Control Specific Binding” value [18]?
Its value is 11%.

What about the “% Inhibition of Control Specific Binding” value ([18]; CYTOKINES TNF-alpha (h) (agonist radioligand)) of the same molecule?
Its value is −23%.

And the “% Inhibition of Control Specific Binding” value ([18]; Ca2+ channel (L, dihydropyridine site) (antagonist radioligand))?
Its value is 55%.

And the “% Inhibition of Control Specific Binding” value ([18]; Ca2+ channel (L, diltiazem site) (benzothiazepines) (antagonist radioligand))?
The value was −30%.

What about the “% Inhibition of Control Specific Binding” value ([18]; Ca2+ channel (L, verapamil site) (phenylalkylamine) (antagonist radioligand)) of the same molecule?
The value was −4%.

What about the “% Inhibition of Control Specific Binding” value ([18]; Cl- channel (GABA-gated) (antagonist radioligand)) of the same molecule?
Its value is 42%.

What about the “% Inhibition of Control Specific Binding” value ([18]; GABA CHANNELS BZD (central) (agonist radioligand)) of the same molecule?
The value was −31%.

What about the “% Inhibition of Control Specific Binding” value ([18]; GABA transporter (antagonist radioligand)) of the same molecule?
Its value is −10%.

What about the “% Inhibition of Control Specific Binding” value ([18]; GLUTAMATE CHANNELS AMPA (agonist radioligand)) of the same molecule?
The value was 4%.

And the “% Inhibition of Control Specific Binding” value ([18]; GLUTAMATE CHANNELS NMDA (antagonist radioligand))?
The value was 9%.

And the “% Inhibition of Control Specific Binding” value ([18]; GLUTAMATE CHANNELS PCP (antagonist radioligand))?
The value was −11%.

And the “% Inhibition of Control Specific Binding” value ([18]; GLUTAMATE CHANNELS kainate (agonist radioligand))?
The value was 15%.

And the “% Inhibition of Control Specific Binding” value ([18]; Na+ channel (site 2) (antagonist radioligand))?
Its value is 48%.

What about the “% Inhibition of Control Specific Binding” value ([18]; SKCa channel (antagonist radioligand)) of the same molecule?
Its value is 14%.

And the “% Inhibition of Control Specific Binding” value ([18]; Thyroid Hormone)?
The value was 9%.

What about the inhibition at 10 µM [19] of the same molecule?
Its inhibition at 10 µM is 39%.

What about the inhibition at 10 µM [20] of the same molecule?
Its inhibition at 10 µM is 62%.

And the inhibition at 10 µM [21]?
The inhibition at 10 µM was 48%.

And the inhibition at 10 µM [22]?
The inhibition at 10 µM was 40%.

What about the inhibition at 10 µM [23] of the same molecule?
Its inhibition at 10 µM is 6%.
